From patent US11674962B2, “Therapeutic and diagnostic methods for cancer” (Genentech, Inc., priority 2017, dated 2023)

Experiments:
[1] = tested on: treatment-naive, locally advanced or metastatic (stage IIIB-IVB) NSCLC; assay: B-F1RST phase II trial (NCT02848651) interim analysis: efficacy of first-line atezolizumab by bTMB subgroup; assay type: in vivo, human
Text: The B-F1 RST (Clinical Trial ID No.: NCT02848651) patient population being evaluated for bTMB score consists of approximately 150 patients at 20 to 25 study sites (N=153). Patients are eligible for enrollment in the B-F1 RST study if they have treatment-naïve, locally advanced or metastatic (e.g., stage IIIB-IVB) NSCLC; measurable disease, as defined by RECIST v1.1; and an ECOG performance status of 0 or 1. Exclusion criteria include sensitizing EGFR mutations or ALK rearrangements; active brain metastases requiring treatment; leptomeningeal disease; other malignancies within 5 years of enrollment; HBV, HCV, or HIV infection; or history of autoimmune disorder. Participants are divided into cohorts based on bTMB score and receive atezolizumab at a dose of 1200 mg intravenously every three weeks. All patients undergo tumor assessment at baseline and every 6 weeks for the first 12 months following cycle 1, day 1, and then every 9 weeks therafter. Treatment with atezolizumab can be continued as long as participants were experiencing clinical benefit, i.e., in the absence of unacceptable toxicity or symptomatic deterioration attributed to disease progression. Tumor assessments continue until disease progression per RECIST v1.1 or loss of clinical benefit (investigator assessed), consent withdrawal, study discontinuation, study completion, or death. Mandatory blood samples are taken at baseline, during therapy, and at progression to evaluate changes in exploratory biomarkers. The interim analysis was prespecified to occur at 6 months after 50% of the patients have been enrolled, with a prespecified bTMB score of ≥16. The co-primary endpoints are the clinical efficacy of atezolizumab (as evaluated by investigator-assessed ORR per RECIST v1.1) and the relationship between bTMB and PFS benefit (as evaluated by investigator-assessed PFS per RECIST v1.1). The secondary objectives are safety and assessment of efficacy by investigator-assessed duration of response (DOR) and OS.
Of 78 treated patients in the interim analysis population (IAP) from the B-F1 RST study, 58 had adequate blood samples with sufficient detection of circulating tumor DNA (MSAF≥1%) and comprised the biomarker-evaluable population (BEP). One patient of the IAP was never treated and therefore not safety- or efficacy-evaluable. A bTMB score of 16 (prevalence, 19% [11/58]) was prespecified to evaluate clinical efficacy in the BEP (bTMB high, ≥16; bTMB low, <16). Statistical tests were 2-sided at a 0.1 level and 90% confidence interval.

[2] = tested on: non-small cell lung cancer (NSCLC); assay: Combined POPLAR and OAK studies: PFS by bTMB score; assay type: in vivo, human; details: combined BEP of POPLAR and OAK (n=775), reference bTMB score of 14, atezolizumab vs docetaxel
Text: FIG. 7A is a graph showing the Kaplan-Meier Curve of PFS of the combined BEP of patients (nBEP=775 patients; HR=0.62) in the atezolizumab treatment arm (black) and docetaxel control arm (gray) of the POPLAR and OAK studies, each arm stratified according to bTMB score. Patients with a bTMB score that is greater than, or equal to, a reference bTMB score of 14 are indicated by solid lines (Dx+) and patients with a bTMB that is lower than a reference bTMB score of 14 are indicated by dashed lines (Dx−). […] The time point for each column corresponds to the times shown along the x-axis of the above graph. Patient samples having an MSAF less than 1% were excluded from analysis. Sequence coverage was greater than, or equal to, 800. […]
Analysis of bTMB was performed retrospectively. Progression-free survival (PFS) was defined as the time between date of randomization and date of first documented disease progression as assessed by the investigator using RECIST v.1.1 or death from any cause, whichever occurred first. […]

[3] = bTMB cut-off score 12, BEP n = 58
[4] = bTMB cut-off score 14, BEP n = 58
[5] = bTMB cut-off score 16, BEP n = 58
[6] = bTMB cut-off score 20, BEP n = 58

atezolizumab
disease control rate ([1]; B-F1RST interim analysis, BEP (n=58)): 25.9% | ORR ([1]; B-F1RST interim analysis, BEP (n=58), RECIST v1.1): 12.1% | PFS HR (90% CI) ([1]; B-F1RST interim analysis, bTMB high (≥16) vs low (<16)): 0.51 | median PFS ([1]; B-F1RST interim analysis, bTMB high (≥16), minimum follow-up of 6 months): 9.5 months | ORR ([1]; B-F1RST interim analysis, bTMB high (≥16), n=11): 36.4% | ORR odds ratio (90% CI) ([1]; B-F1RST interim analysis, bTMB high versus low groups): 8.38 | median PFS ([1]; B-F1RST interim analysis, bTMB low (<16), minimum follow-up of 6 months): 2.8 months | ORR ([1]; B-F1RST interim analysis, bTMB low (<16), n=47): 6.4% | ORR per RECIST v.1.1 ([1]; BEP (n = 58)): 12.1% | PD per RECIST v.1.1 ([1]; BEP (n = 58)): 37.9% | PR per RECIST v.1.1 ([1]; BEP (n = 58)): 12.1% | ORR per RECIST v.1.1 ([1]; IAP (n = 78)): 15.4% | PD per RECIST v.1.1 ([1]; IAP (n = 78)): 37.2% | PR per RECIST v.1.1 ([1]; IAP (n = 78)): 15.4% | PFS Median, bTMB High [1, 3]: 3.0 (22) months | PFS Median, bTMB Low [1, 3]: 3.2 (36) months | PFS Median, bTMB High [1, 4]: 3.4 (14) months | PFS Median, bTMB Low [1, 4]: 3.2 (44) months | PFS Median, bTMB High [1, 5]: 9.5 (11) months | PFS Median, bTMB Low [1, 5]: 2.8 (47) months | PFS Median, bTMB High [1, 6]: 9.5 (8) months | PFS Median, bTMB Low [1, 6]: 2.7 (50) months | ORR per RECIST v.1.1 ([1]; bTMB high (n = 11)): 36.4% | PD per RECIST v.1.1 ([1]; bTMB high (n = 11)): 36.4% | PR per RECIST v.1.1 ([1]; bTMB high (n = 11)): 36.4% | PFS HR ([1]; bTMB high (≥16) vs bTMB low (<16), Table 20): 0.51 | median PFS ([1]; bTMB high (≥16), n = 11, BEP, first-line atezolizumab, minimum follow-up 6 months): 9.5 mo | PFS HR ([1]; bTMB high vs low at cut-off score 12, BEP n = 58): 0.95 | PFS HR ([1]; bTMB high vs low at cut-off score 14, BEP n = 58): 0.73 | PFS HR ([1]; bTMB high vs low at cut-off score 16, BEP n = 58, Table 21): 0.49 | PFS HR ([1]; bTMB high vs low at cut-off score 20, BEP n = 58): 0.23 | median PFS ([1]; bTMB low (<16), n = 47, BEP, first-line atezolizumab, minimum follow-up 6 months): 2.8 mo | ORR per RECIST v.1.1 ([1]; bTMB low (n = 47)): 6.4% | PD per RECIST v.1.1 ([1]; bTMB low (n = 47)): 38.3% | PR per RECIST v.1.1 ([1]; bTMB low (n = 47)): 6.4% | PFS HR [2]: 0.62
